Experiment [1] has as its system Mus musculus. Kind of experiment: Reduction in AR-V7 level in tumor lysates of NSG mouse xenografted with human VCaP cells at 10 mg/kg, po co-administered with 25 mg/kg AR antagonist MDV via gavage with 5 days on and 2 days off dosing schedule for 6 weeks by immunoblot analysis. Format: functional, organism-based. As to conditions: Neoplasm.
For experiment [2], the system named is Mus musculus. Kind of experiment: Reduction in AR-V7 level in tumor lysates of NSG mouse xenografted with human VCaP cells at 10 mg/kg, po administered via gavage with 5 days on and 2 days off dosing schedule for 6 weeks by immunoblot analysis. As to conditions: Neoplasm. It is filed as functional, organism-based.
In experiment [3] the test system is Mus musculus. Kind of experiment: Reduction in total AR isoforms in tumor lysates of NSG mouse xenografted with human VCaP cells at 10 mg/kg, po administered via gavage with 5 days on and 2 days off dosing schedule for 6 weeks by immunoblot analysis. As to conditions: Neoplasm. Format: functional, organism-based.
Experiment [4] relates to VCaP. Kind of experiment: Antitumor activity against human VCaP cells xenografted in NSG mouse assessed as tumor volume at 10 mg/kg, po co-administered with 25 mg/kg AR antagonist MDV via gavage with 5 days on and 2 days off dosing schedule for 6 weeks and measured bi-weekly for 6 weeks (reference value: 698.9 +/-286.5 […]). Format: functional.
In experiment [5] the test system is VCaP. Kind of experiment: Antitumor activity against human VCaP cells xenografted in NSG mouse assessed as tumor volume at 10 mg/kg, po administered via gavage with 5 days on and 2 days off dosing schedule for 6 weeks and measured bi-weekly for 6 weeks. Format: functional.
Experiment [6] deals with VCaP. In words: Antiproliferative activity against human VCaP cells assessed as reduction in cell viability at 1 to 10 uM after 14 days in presence of AR antagonist MDV by Celltiter-Glo luminescence assay. It is filed as functional, cell-based. As to conditions: dose microM 1-10, time 14.0 day.
Experiment [7] concerns the target T1, RNA-binding protein 39 (Homo sapiens) (UniProt Q14498).
T1 sequence (whole entry): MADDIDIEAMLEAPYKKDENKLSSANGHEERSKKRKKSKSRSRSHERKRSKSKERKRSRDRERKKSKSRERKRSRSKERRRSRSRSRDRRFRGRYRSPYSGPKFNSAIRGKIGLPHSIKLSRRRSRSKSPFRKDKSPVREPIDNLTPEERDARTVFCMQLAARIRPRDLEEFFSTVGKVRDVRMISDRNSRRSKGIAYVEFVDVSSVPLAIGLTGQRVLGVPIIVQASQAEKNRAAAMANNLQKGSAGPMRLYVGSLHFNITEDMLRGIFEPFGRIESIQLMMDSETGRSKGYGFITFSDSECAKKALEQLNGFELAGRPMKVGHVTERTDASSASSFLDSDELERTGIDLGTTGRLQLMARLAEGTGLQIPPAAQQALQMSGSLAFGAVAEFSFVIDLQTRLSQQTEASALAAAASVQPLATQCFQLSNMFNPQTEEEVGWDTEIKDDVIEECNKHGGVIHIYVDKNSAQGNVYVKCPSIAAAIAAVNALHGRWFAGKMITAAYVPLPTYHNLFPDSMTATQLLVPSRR
Kind of experiment: Induction of RBM39 degradation in human VCaP cells assessed as AR splicing modulation by measuring reduction in AR-V7 splice variant mRNA transcript level incubated for 24 hrs in presence of AR antagonist MDV by RT-qPCR analysis. It is filed as cell-based.

The target in experiment [8] is T2, Androgen receptor (Homo sapiens) (UniProt P10275).
T2 sequence (whole entry): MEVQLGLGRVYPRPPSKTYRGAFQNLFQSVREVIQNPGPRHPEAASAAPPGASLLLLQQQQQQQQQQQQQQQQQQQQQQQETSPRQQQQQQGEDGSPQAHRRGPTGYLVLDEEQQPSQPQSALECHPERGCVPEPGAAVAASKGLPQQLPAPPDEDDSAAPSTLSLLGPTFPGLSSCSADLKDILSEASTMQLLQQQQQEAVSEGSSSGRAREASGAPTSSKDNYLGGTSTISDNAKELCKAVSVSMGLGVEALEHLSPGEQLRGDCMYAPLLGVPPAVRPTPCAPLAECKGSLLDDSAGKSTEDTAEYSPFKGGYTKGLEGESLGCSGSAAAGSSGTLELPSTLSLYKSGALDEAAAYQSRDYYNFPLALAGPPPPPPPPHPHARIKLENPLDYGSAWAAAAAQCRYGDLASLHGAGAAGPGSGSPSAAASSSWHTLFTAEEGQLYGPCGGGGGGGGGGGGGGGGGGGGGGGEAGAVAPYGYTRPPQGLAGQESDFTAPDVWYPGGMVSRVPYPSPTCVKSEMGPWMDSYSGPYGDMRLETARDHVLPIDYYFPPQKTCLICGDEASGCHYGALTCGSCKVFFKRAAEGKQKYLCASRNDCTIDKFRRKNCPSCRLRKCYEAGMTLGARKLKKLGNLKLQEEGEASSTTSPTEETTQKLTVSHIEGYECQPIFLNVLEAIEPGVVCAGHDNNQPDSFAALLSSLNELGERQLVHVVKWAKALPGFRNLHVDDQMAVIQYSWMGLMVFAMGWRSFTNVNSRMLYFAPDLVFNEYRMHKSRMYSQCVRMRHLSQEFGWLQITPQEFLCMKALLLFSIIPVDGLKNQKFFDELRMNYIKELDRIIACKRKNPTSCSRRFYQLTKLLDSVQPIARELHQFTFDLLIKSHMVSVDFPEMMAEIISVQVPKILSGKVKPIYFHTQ
In words: Antagonist activity at AR in human VCaP cells assessed as upregulation of DHT-suppressed AR-V7 mRNA transcript level at 10 uM preincubated for 24 hrs with DHT followed by wash-out and then incubated with compound for 24 hrs by RT-qPCR analysis. It is filed as cell-based.

Experiment [9] concerns VCaP. In words: Effect on MDV-induced recovery of DHT-suppressed full length AR mRNA expression in human VCaP cells at 10 uM preincubated for 24 hrs with DHT followed by wash-out and then incubated with compound for 24 hrs in presence of AR antagonist , MDV by RT-qPCR analysis. Format: functional, cell-based.
The test system of experiment [10] is VCaP. Kind of experiment: Effect on full-length AR mRNA level in human VCaP cells at 10 uM after 24 hrs by RT-qPCR analysis. It is filed as functional, cell-based.
In experiment [11] the test system is Mus musculus. Kind of experiment: Reduction in RBM39 level in tumor lysates of NSG mouse xenografted with human VCaP cells at 10 mg/kg, po administered via gavage with 5 days on and 2 days off dosing schedule for 6 weeks by immunoblot analysis. It is filed as functional, organism-based. As to conditions: Neoplasm.
Experiment [12] deals with Mus musculus. Kind of experiment: Reduction in RBM39 level in tumor lysates of NSG mouse xenografted with human VCaP cells at 10 mg/kg, po co-administered with 25 mg/kg AR antagonist MDV via gavage with 5 days on and 2 days off dosing schedule for 6 weeks by immunoblot analysis. It is filed as functional, organism-based. As to conditions: Neoplasm.
The subject of experiment [13] is Mus musculus. Kind of experiment: Reduction in total AR isoforms in tumor lysates of NSG mouse xenografted with human VCaP cells at 10 mg/kg, po co-administered with 25 mg/kg AR antagonist MDV via gavage with 5 days on and 2 days off dosing schedule for 6 weeks by immunoblot analysis. As to conditions: Neoplasm. Format: functional, organism-based.
The test system of experiment [14] is VCaP. In words: Recovery of DHT-suppressed full length AR mRNA expression in human VCaP cells at 10 uM preincubated for 24 hrs with DHT followed by wash-out and then incubated with compound for 24 hrs by RT-qPCR analysis. It is filed as functional, cell-based.
Experiment [15] concerns the target T1, RNA-binding protein 39 (Homo sapiens). In words: Induction of RBM39 degradation in human VCaP cells assessed as reduction in AR-V7 protein expression preincubated for 24 hrs with DHT followed by wash-out and incubated with compound for 24 hrs in presence of AR antagonist MDV by western blot analysis. It is filed as cell-based.
The target is the same in experiment [16]. Kind of experiment: Induction of RBM39 degradation in human VCaP cells assessed as reduction in RBM39 protein expression preincubated for 24 hrs with DHT followed by wash-out and incubated with compound for 24 hrs in presence of AR antagonist MDV by western blot analysis. It is filed as cell-based.
Experiment [17] shares this target. In words: Induction of RBM39 degradation in human VCaP cells assessed as reduction in RBM39 protein expression at 10 uM preincubated for 24 hrs with DHT followed by wash-out and incubated with compound for 24 hrs in presence of AR antagonist MDV by western blot analysis. Format: cell-based.

Calls of active or inactive are those of the source. No cut-off for these calls is given here.

On to `NS(=O)(=O)c1ccc(S(=O)(=O)Nc2cccc3c(Cl)c[nH]c23)cc1` [INDISULAM], for which the inhibition entry in the experiment on Mus musculus [1], with Mus musculus [2], in the experiment on Mus musculus [3], in the experiment with Mus musculus [11] and with Mus musculus [13] was “Active” throughout. The Activity with VCaP [4] was 409 mm3; with VCaP [5], 152 mm3; in experiment [7] it was “Dose-dependent effect”; in experiment [15] it was “Dose-dependent effect”; in experiment [16], “Dose-dependent effect”. In addition, the result (in the experiment on VCaP [6]; in the experiment on VCaP [14]; in [17]) was Active. In addition, the result (in experiment [8]; with VCaP [9]; in the experiment with VCaP [10]) was inactive. For the same compound, the inhibition result with Mus musculus [12] is “inactive”.
